Assays:
Type in all cases: biochemical
KDM4B (JMJD2B) = biological target: T1, KDM4B (JMJD2B) (Homo sapiens, UniProt O94953); test: Histone lysine demethylase AlphaLISA assay, KDM4B; conditions: read-out: KDM4B HDME Inhibition IC50
T1 construct: 2-500; purchased BPS; host or cells: Bac (baculovirus system)
T1 sequence (O94953 2-500): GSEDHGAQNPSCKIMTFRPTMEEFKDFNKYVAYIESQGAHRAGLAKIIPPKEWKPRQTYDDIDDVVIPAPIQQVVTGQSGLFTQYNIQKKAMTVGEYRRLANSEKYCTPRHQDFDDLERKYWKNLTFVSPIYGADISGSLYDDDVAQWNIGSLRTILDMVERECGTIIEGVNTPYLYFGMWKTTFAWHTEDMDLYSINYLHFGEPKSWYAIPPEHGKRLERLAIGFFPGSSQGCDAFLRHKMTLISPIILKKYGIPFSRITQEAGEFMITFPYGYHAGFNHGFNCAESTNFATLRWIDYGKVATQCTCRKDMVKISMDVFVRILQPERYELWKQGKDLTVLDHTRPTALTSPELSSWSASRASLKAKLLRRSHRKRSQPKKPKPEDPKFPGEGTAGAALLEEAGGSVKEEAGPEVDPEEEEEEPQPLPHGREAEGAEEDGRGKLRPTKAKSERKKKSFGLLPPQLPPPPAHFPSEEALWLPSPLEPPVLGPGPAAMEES
Procedure: (§1) Assays are performed analogously to the protocol described by PerkinElmer (Roy et al. PerkinElmer Technical Note: AlphaLISA #12, April 2011)
(§2) Enzymes are dissolved in enzyme buffer and incubated for 10 min before being added to 3% DMSO solutions of compounds in enzyme buffer. Incubated for another 10 minutes, before substrate solution is added and the reaction mixture is incubated at room temperature. 10 μL acceptor beads, suspended in Epigenetic Buffer (Perkin Elmer AL008) from stock, are added and the suspension is incubated in the dark at room temperature, before a suspension of streptavidin donor beads (Perkin Elmer 6760002) in Epigenetic Buffer is added. After incubation at room temperature in the dark the plates are read.
BK9M3: Biotin-ARTKQTAR(KMe3)STGGKAPRKQ-NH2 (Caslo, Denmark) […]
(§3) Substrate Solution: Substrate, 25 μM L-Asc, and 10 μM α-KG in Buffer A.

KDM5B (PLU-1) = biological target: T2, KDM5B (PLU-1) (Homo sapiens, UniProt Q9UGL1); test: Histone lysine demethylase AlphaLISA assay, KDM5B; conditions: read-out: KDM5B HDME Inhibition IC50
T2 sequence (Q9UGL1 1-809): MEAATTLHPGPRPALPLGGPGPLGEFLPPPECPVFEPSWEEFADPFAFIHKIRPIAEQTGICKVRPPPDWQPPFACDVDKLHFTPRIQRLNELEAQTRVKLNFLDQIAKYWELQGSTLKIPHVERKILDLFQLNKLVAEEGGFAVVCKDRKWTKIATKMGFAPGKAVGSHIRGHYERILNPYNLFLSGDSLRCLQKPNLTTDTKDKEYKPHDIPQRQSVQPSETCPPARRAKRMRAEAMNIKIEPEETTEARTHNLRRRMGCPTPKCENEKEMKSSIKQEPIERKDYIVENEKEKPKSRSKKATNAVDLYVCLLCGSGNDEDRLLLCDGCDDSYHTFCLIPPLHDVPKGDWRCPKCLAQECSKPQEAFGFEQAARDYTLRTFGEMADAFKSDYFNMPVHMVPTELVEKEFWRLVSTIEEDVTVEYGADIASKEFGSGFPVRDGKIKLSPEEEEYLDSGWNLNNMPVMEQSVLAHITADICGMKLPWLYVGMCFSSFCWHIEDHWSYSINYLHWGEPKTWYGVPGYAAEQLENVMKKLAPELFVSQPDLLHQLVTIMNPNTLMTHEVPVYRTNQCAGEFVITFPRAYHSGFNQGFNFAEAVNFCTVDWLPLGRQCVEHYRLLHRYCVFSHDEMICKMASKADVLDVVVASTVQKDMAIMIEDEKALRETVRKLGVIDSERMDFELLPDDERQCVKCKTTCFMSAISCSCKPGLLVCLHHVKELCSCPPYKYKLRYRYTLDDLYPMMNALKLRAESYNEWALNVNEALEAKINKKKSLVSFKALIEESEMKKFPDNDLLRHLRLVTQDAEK
Procedure, shortened: (§4)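 Steps: enzyme equilibrated 10 min in buffer; compounds in 3% DMSO solution added, 10 min; substrate mix added (peptide, 25 μM L-Asc, 10 μM α-KG), room temperature; acceptor beads, then streptavidin donor beads, dark incubations; plate read.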

KDM6B (JMJD3) = biological target: T3, KDM6B (JMJD3) (Homo sapiens, UniProt O15054); test: Histone lysine demethylase AlphaLISA assay, KDM6B; conditions: read-out: KDM6B HDME Inhibition IC50
T3 construct: 1043-end; purchased BPS; host or cells: Bac (baculovirus system)
T3 sequence (O15054 1043-1682 isoform O15054-1 limits assumed): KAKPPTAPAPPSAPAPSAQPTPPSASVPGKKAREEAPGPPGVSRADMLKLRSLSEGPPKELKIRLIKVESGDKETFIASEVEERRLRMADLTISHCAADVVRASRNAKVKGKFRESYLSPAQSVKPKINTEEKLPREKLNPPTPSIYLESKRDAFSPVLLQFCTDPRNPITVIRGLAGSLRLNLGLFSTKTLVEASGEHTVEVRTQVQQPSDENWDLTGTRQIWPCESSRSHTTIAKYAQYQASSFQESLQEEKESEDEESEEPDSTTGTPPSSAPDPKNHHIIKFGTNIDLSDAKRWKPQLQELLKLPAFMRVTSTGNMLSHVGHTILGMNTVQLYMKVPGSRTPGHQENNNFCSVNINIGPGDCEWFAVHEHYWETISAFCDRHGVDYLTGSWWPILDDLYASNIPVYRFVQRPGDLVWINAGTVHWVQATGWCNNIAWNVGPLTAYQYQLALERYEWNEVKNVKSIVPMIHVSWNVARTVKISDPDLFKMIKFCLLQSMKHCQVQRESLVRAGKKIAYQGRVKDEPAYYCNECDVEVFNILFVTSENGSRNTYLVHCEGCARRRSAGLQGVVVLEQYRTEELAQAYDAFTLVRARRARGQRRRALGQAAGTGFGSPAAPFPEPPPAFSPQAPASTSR
Procedure: as §1
as §2, with “read. […]” for “read.”
BK27M3: Biotin-ATKAAR(Kme3)SAPATGGVKKPHRY-NH2? (Caslo, Denmark) […]
as §3

KDM7 (PHF8) = biological target: T4, KDM7 (PHF8) (Homo sapiens, UniProt Q9UPP1); test: Histone lysine demethylase AlphaLISA assay, KDM7; conditions: read-out: PHF8 HDME Inhibition IC50
T4 construct: KDM7 (PHF8); BRIC; 1-1322; Bac
T4 sequence (Q9UPP1 37-440 limits assumed): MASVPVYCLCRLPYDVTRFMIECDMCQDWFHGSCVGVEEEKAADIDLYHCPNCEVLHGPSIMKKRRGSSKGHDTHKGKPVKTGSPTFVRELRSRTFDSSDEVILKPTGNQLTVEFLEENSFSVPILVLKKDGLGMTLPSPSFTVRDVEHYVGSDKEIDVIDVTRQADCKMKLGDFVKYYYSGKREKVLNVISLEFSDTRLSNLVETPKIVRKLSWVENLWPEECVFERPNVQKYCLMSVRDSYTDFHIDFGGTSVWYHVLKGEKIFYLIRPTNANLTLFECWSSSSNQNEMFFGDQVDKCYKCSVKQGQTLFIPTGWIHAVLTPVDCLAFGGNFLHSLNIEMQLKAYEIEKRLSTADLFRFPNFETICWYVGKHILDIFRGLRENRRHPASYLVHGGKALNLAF
Procedure, shortened: as §4

CN(C)CCC/N=C/c1ccnc(CNCCCN(C)C)c1 [Compound 37, [3-(dimethylamino)propyl]-({4-[{[3-(dimethylamino)propyl]-imino}methyl]pyridin-2-yl}methyl)amine]
IC50 (KDM4B (JMJD2B)): 250 to 2500 nM
IC50 (KDM5B (PLU-1)): < 250 nM
IC50 (KDM6B (JMJD3)): > 2500 nM
IC50 (KDM7 (PHF8)): > 2500 nM

CN(C)CCCNCc1cc(/C=N/CCN(C)C)ccn1 [Compound 38, ({4-[{[2-(dimethylamino)ethyl]-imino}methyl]pyridin-2-yl}methyl)[3-(dimethylamino)-propyl]amine]
IC50 (KDM4B (JMJD2B)): > 2500 nM
IC50 (KDM5B (PLU-1)): < 250 nM
IC50 (KDM6B (JMJD3)): > 2500 nM
IC50 (KDM7 (PHF8)): > 2500 nM

CCSCCNCc1cc(/C=N/C2CC2)ccn1 [Compound 39, N-{[2-({[2-(ethylsulfanyl)-ethyl]amino}methyl)pyridin-4-yl]methylidene}-cyclopropanamine]
IC50 (KDM4B (JMJD2B)): < 250 nM
IC50 (KDM5B (PLU-1)): 250 to 2500 nM
IC50 (KDM6B (JMJD3)): > 2500 nM
IC50 (KDM7 (PHF8)): < 250 nM

CN1CCCC1CCNCc1cc(/C=N/C2CC2)ccn1 (stereo not drawn) [Compound 40, N-{[2-({[2-(l-methylpyrrolidin-2-yl)ethyl]amino}methyl)-pyridin-4-yl]methylidene}-cyclopropanamine]
IC50 (KDM4B (JMJD2B)): 250 to 2500 nM
IC50 (KDM5B (PLU-1)): < 250 nM
IC50 (KDM6B (JMJD3)): > 2500 nM
IC50 (KDM7 (PHF8)): > 2500 nM

CN(CCCNCc1cc(/C=N/C2CC2)ccn1)Cc1ccccc1 [Compound 41, N-({2-[({3-[benzyl(methyl)amino]-propyl}amino)methyl]-pyridin-4-yl}methylidene)-cyclopropanamine]
IC50 (KDM4B (JMJD2B)): < 250 nM
IC50 (KDM5B (PLU-1)): < 250 nM
IC50 (KDM6B (JMJD3)): > 2500 nM
IC50 (KDM7 (PHF8)): > 2500 nM

C(=N/C1CC1)/c1ccnc(CNCCCN2CCCC2)c1 [Compound 42, N-{[2-({[3-(pyrrolidin-1-yl)propyl]amino}-methyl)pyridin-4-yl]methylidene}-cyclopropanamine]
IC50 (KDM4B (JMJD2B)): 250 to 2500 nM
IC50 (KDM5B (PLU-1)): < 250 nM
IC50 (KDM6B (JMJD3)): > 2500 nM
IC50 (KDM7 (PHF8)): > 2500 nM

CN(C)C/C=C/CNCc1cc(/C=N/C2CC2)ccn1 [Compound 43, N-{[2-({[(2E)-4-(dimethylamino)but-2-en-1-yl]amino}-methyl)pyridin-4-yl]methylidene}-cyclopropanamine]
IC50 (KDM4B (JMJD2B)): < 250 nM
IC50 (KDM5B (PLU-1)): < 250 nM
IC50 (KDM6B (JMJD3)): > 2500 nM
IC50 (KDM7 (PHF8)): 250 to 2500 nM

C(=N\C1CC1)/c1ccnc(CNCCCCN2CCC2)c1 [Compound 44, N-{[2-({[4-(azetidin-1-yl)butyl]amino}methyl)-pyridin-4-yl]methylidene}-cyclopropanamine]
IC50 (KDM4B (JMJD2B)): > 2500 nM
IC50 (KDM5B (PLU-1)): < 250 nM
IC50 (KDM6B (JMJD3)): 250 to 2500 nM
IC50 (KDM7 (PHF8)): > 2500 nM

CN(C)CCCCNCc1cc(/C=N\C2CC2)ccn1 [Compound 45, N-{[2-({[4-(dimethylamino)butyl]-amino}methyl)-pyridin-4-yl]methylidene}-cyclopropanamine]
IC50 (KDM4B (JMJD2B)): 250 to 2500 nM
IC50 (KDM5B (PLU-1)): 250 to 2500 nM
IC50 (KDM6B (JMJD3)): > 2500 nM
IC50 (KDM7 (PHF8)): > 2500 nM

CN(C)CC1CCC(CNCc2cc(/C=N/C3CC3)ccn2)CC1 (centres unmarked) [Compound 46, N-[(2-{[({4-[(dimethylamino)-methyl]cyclohexyl}-methyl)amino]-methyl}pyridin-4-yl)methylidene]-cyclopropanamine]
IC50 (KDM4B (JMJD2B)): 250 to 2500 nM
IC50 (KDM5B (PLU-1)): 250 to 2500 nM
IC50 (KDM6B (JMJD3)): > 2500 nM
IC50 (KDM7 (PHF8)): > 2500 nM

CN(C)CCCCCNCc1cc(/C=N/C2CC2)ccn1 [Compound 47, N-{[2-({[5-(dimethylamino)-pentyl]amino}-methyl)pyridin-4-yl]methylidene}-cyclopropanamine]
IC50 (KDM4B (JMJD2B)): 250 to 2500 nM
IC50 (KDM5B (PLU-1)): < 250 nM
IC50 (KDM6B (JMJD3)): > 2500 nM
IC50 (KDM7 (PHF8)): > 2500 nM

CCN(CC)CCCCNC(=O)CNCc1cc(/C=N/C2CC2)ccn1 [Compound 48, 2-[({4-[N-cyclopropyl-carboximidoyl]pyridin-2-yl}methyl)amino]-N-[4-(diethylamino)-butyl]acetamide]
IC50 (KDM4B (JMJD2B)): < 250 nM
IC50 (KDM5B (PLU-1)): < 250 nM
IC50 (KDM6B (JMJD3)): > 2500 nM
IC50 (KDM7 (PHF8)): < 250 nM

O=C(CNCc1cc(/C=N/C2CC2)ccn1)N1CCC[C@@H]1CN1CCCC1 [Compound 49, 2-[({4-[N-cyclopropyl-carboximidoyl]pyridin-2-yl}methyl)amino]-1-[(2R)-2-(pyrrolidin-1-ylmethyl)pyrrolidin-1-yl]ethan-1-one]
IC50 (KDM4B (JMJD2B)): < 250 nM
IC50 (KDM5B (PLU-1)): < 250 nM
IC50 (KDM6B (JMJD3)): > 2500 nM
IC50 (KDM7 (PHF8)): 250 to 2500 nM

CCN(CCC#N)C(=O)CNCc1cc(/C=N/C2CC2)ccn1 [Compound 50, N-(2-cyanoethyl)-2-[({4-[N-cyclopropyl-carboximidoyl]-pyridin-2-yl}methyl)amino]-N-ethylacetamide]
IC50 (KDM4B (JMJD2B)): < 250 nM
IC50 (KDM5B (PLU-1)): < 250 nM
IC50 (KDM6B (JMJD3)): > 2500 nM
IC50 (KDM7 (PHF8)): < 250 nM

CCN1CCCC1CNC(=O)CNCc1cc(/C=N/C2CC2)ccn1 (centres unmarked) [Compound 51, 2-[({4-[N-cyclopropyl-carboximidoyl]-pyridin-2-yl}methyl)-amino]-N-[(1-ethylpyrrolidin-2-yl)methyl]acetamide]
IC50 (KDM4B (JMJD2B)): < 250 nM
IC50 (KDM5B (PLU-1)): < 250 nM
IC50 (KDM6B (JMJD3)): > 2500 nM
IC50 (KDM7 (PHF8)): 250 to 2500 nM

O=C(CNCc1cc(/C=N/C2CC2)ccn1)NC1CCN(Cc2ccccc2)C1 (centres unmarked) [Compound 53, N-(1-benzylpyrrolidin-3-yl)-2-[({4-[N-cyclopropyl-carboximidoyl]pyridin-2-yl}methyl)amino]-acetamide]
IC50 (KDM4B (JMJD2B)): < 250 nM
IC50 (KDM5B (PLU-1)): < 250 nM
IC50 (KDM6B (JMJD3)): 250 to 2500 nM
IC50 (KDM7 (PHF8)): < 250 nM

CN1CCN(C(=O)CNCc2cc(/C=N/C3CC3)ccn2)CC1 [Compound 54, 2-[({4-[N-cyclopropyl-carboximidoyl]-pyridin-2-yl}methyl)amino]-1-(4-methylpiperazin-1-yl)ethan-1-one]
IC50 (KDM4B (JMJD2B)): 250 to 2500 nM
IC50 (KDM5B (PLU-1)): < 250 nM
IC50 (KDM6B (JMJD3)): > 2500 nM
IC50 (KDM7 (PHF8)): > 2500 nM

O=C(CNCc1cc(/C=N/C2CC2)ccn1)N1CCC(Cc2ccccc2)CC1 [Compound 55, 1-(4-benzylpiperidin-1-yl)-2-[({4-[N-cyclopropyl-carboximidoyl]-pyridin-2-yl}methyl)amino]-ethan-1-one]
IC50 (KDM4B (JMJD2B)): < 250 nM
IC50 (KDM5B (PLU-1)): < 250 nM
IC50 (KDM6B (JMJD3)): > 2500 nM
IC50 (KDM7 (PHF8)): 250 to 2500 nM

C#CCN(C)C(=O)CNCc1cc(/C=N/C2CC2)ccn1 [Compound 56, 2-[({4-[N-cyclopropyl-carboximidoyl]-pyridin-2-yl}methyl)amino]-N-methyl-N-(prop-2-yn-1-yl)acetamide]
IC50 (KDM4B (JMJD2B)): 250 to 2500 nM
IC50 (KDM5B (PLU-1)): 250 to 2500 nM
IC50 (KDM6B (JMJD3)): > 2500 nM
IC50 (KDM7 (PHF8)): 250 to 2500 nM

CCN(CC)C(=O)CNCc1cc(/C=N/CCC2CCCCC2)ccn1 [Compound 57, 2-[({4-[[(2-cyclohexylethyl)imino]-methyl]pyridin-2-yl}methyl)amino]-N,N-diethylacetamide]
IC50 (KDM4B (JMJD2B)): < 250 nM
IC50 (KDM5B (PLU-1)): < 250 nM
IC50 (KDM6B (JMJD3)): > 2500 nM
IC50 (KDM7 (PHF8)): > 2500 nM
